These results are taken from PubChem BioAssay (NCI).

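Each compound was tested at five concentrations against cells in 96-well plates for 48 hours. Here, GI50 denotes the concentration required for 50% inhibition of growth. At the TGI there is no net growth.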 Where only a bound is given, the exact number is not on record here.

Common to all, as to assay: NCI-60 cell line screen, 48 h
Test [1] concerns OVCAR-4 ovarian.
Test [2] deals with RPMI-8226 leukemia.
The subject of test [3] is CCRF-CEM leukemia.
For test [4], the system named is ACHN renal.
Test [5] deals with MCF7 breast.
In test [6] the test system is SF-295 CNS.
Test [7] concerns SF-268 CNS.
Test [8] concerns PC-3 prostate.
Test [9] has as its system HCT-15 colon.
Test [10] relates to UACC-62 melanoma.

In the case of `COc1ccc2c(-c3ccnc(Nc4cccc(OC(F)(F)F)c4)n3)cnn2n1`, the GI50 in test [1] was 3.32 µM; in test [2] it was 1.77 µM; in test [3], 1.09 µM; in test [4] it was 1.8 µM; in [5], 1.07 µM; in [6], 0.683 µM. For the same molecule, the GI50 in test [7] is 1.53 µM; in [8], 0.987 µM; in [9], 1.03 µM; in [10] it was 0.863 µM. Besides, the TGI in test [1] is 12.5 µM; in [2], over 21 µM; in [3] it was over 25 µM; in test [4] it was over 25 µM; in [5], 6.15 µM; in test [6], over 14.8 µM. Besides, the TGI was 6.53 µM in test [7], over 25 µM in [8], over 23 µM in [9] and 6.94 µM in test [10].

As to `CC1C=CC(OC(=O)C(C)(O)CCC(O)(C(=O)OC2CC(O)C(C(C)C)CC2(C)O)C(C)C)(C(C)C)CC1` (centres undefined), the GI50 in test [1] is 0.746 µM; in test [2], 0.161 µM; in test [3] it was 0.244 µM; in test [4], 0.322 µM; in test [5], 0.182 µM; in [6], 0.657 µM. Besides, the GI50 was 0.645 µM in test [7], 0.676 µM in test [8], 0.235 µM in test [9] and 0.511 µM in [10]. For the same molecule, the TGI came out at 1.71 µM in test [1]; 0.711 µM in test [2]; 0.901 µM in test [3]; 0.949 µM in [4]; 0.904 µM in test [5]; 1.41 µM in test [6]. Besides, the TGI in test [7] came to 1.64 µM; in [8], 1.4 µM; in test [9], 0.869 µM; in test [10], 2.79 µM.

As for `C=CCc1cc(Nc2c3ccc(Cl)cc3nc3ccc(OC)cc23)cc(CN(CC)CC)c1O`, the GI50 in [1] is 1.68 µM; in [2], 0.348 µM; in [3], 0.8 µM; in test [4], 2.12 µM; in [5], 2.1 µM; in [6], 0.938 µM. Besides, the GI50 in [7] is 2.9 µM; in [8] it was 1.04 µM; in test [9], 2.59 µM; in test [10] it was 1.75 µM. The TGI in test [1] is 12.2 µM; in [2] it was 2.38 µM; in test [3] it was 4.26 µM; in [4], 13.1 µM; in [5], 7.94 µM; in test [6], 5.17 µM. The TGI in test [7] came to 16 µM; in test [8], 4.73 µM; in test [9], 12 µM; in test [10] it was 4.4 µM.

Take `O=C(CN1N=C(c2ccc(F)cc2)CCC1=O)Nc1nc2ccccc2s1`: the GI50 in test [1] was 2.14 µM; in test [2], 2.29 µM; in test [3], 0.249 µM; in [4], 4.23 µM; in test [5], 50.1 µM; in test [6], over 100 µM. Besides, the GI50 in [7] was 5.59 µM; in test [8], 9.82 µM; in [9] it was 41.6 µM; in [10], 7.62 µM. Further, the TGI is 6.17 µM in test [2]; 0.665 µM in [3]; over 100 µM in [4]; over 100 µM in test [5]; over 100 µM in test [6]; over 35.9 µM in test [7]. For the same molecule, the TGI in test [8], in test [9] and in [10] was over 100 µM in each case.

As for `CCC(=O)Nc1ccc(N2C(=O)/C(=C/c3ccc(OC)cc3)N=C2c2ccccc2)cc1`, the GI50 in test [1] is 16.2 µM; in test [2] it was 4.67 µM; in [3] it was over 50 µM; in test [4], 5.62 µM; in test [5], 7.77 µM; in [6], 28 µM. Moreover, the GI50 was 4.88 µM in test [7], 13.5 µM in test [8], 2.77 µM in [9] and 3.67 µM in test [10]. The TGI in [1] was over 50 µM; in test [2] it was over 50 µM; in test [3] it was over 50 µM; in test [4], 16 µM; in [5], over 50 µM; in test [6], over 50 µM. The TGI is over 50 µM in test [7], over 50 µM in test [8], over 50 µM in test [9] and 17.7 µM in test [10].

Regarding `CCN1C(=O)N(CC)C2C1NN=c1s/c(=C\c3ccc(F)cc3)c(=O)n12` (centres undefined), the GI50 in [1] was 0.786 µM; in test [2] it was 0.326 µM; in [3] it was 0.265 µM; in test [4], 0.336 µM; in test [5] it was 0.0454 µM; in test [6] it was 0.0819 µM. The GI50 in test [7] was 0.807 µM; in [8], 0.217 µM; in test [9], 0.0876 µM; in [10], 0.111 µM. Besides, the TGI is over 100 µM in [1]; over 63.2 µM in test [2]; over 100 µM in [3]; over 100 µM in test [4]; over 100 µM in test [5]; over 100 µM in test [6]. Besides, the TGI in [7], in test [8], in [9] and in [10] was over 100 µM in each case.

In the case of `CSc1ccc(C2=NN(C(C)=O)C(c3ccc(-c4ccc(Cl)cc4)o3)C2)cc1` (centres undefined), the GI50 is 32.9 µM in test [1]; 23.8 µM in test [2]; 44.2 µM in test [3]; 37.1 µM in test [4]; 39.9 µM in [5]; 34 µM in [6]. Moreover, the GI50 was 21.7 µM in test [7], 20.1 µM in [8], 23.2 µM in [9] and 20.1 µM in test [10]. Moreover, the TGI in test [1], in test [2], in [3], in test [4], in [5] and in [6] was over 100 µM throughout. For the same molecule, the TGI in test [7] is 71.4 µM; in [8], over 100 µM; in test [9], over 100 µM; in test [10], over 100 µM.
